Like-named read-outs stand apart in the source and are kept apart here.
How the values were obtained:
Type in all cases: cell-based, mouse
[1] = test system: LPS-activated NO production in RAW 264.7 macrophages; experiment: Inhibition of LPS-induced NO production (nitrite, Griess reagent assay); conditions: for IC50: Mus musculus, read-out: IC50 NO; for NO inhibition (in words): LPS-induced NO production in RAW 264.7
Description: (§1) Mouse macrophage cell line (RAW 264.7) was obtained from Bioresource Collection and Research Center (BCRC 60001) and cultured at 37 °C in Dulbecco’s Modified Eagle’s Medium (DMEM) supplemented with 10% fetal bovine serum (Gibco), 4.5 g/L glucose, 4 mM glutamine, penicillin (100 units/mL), and streptomycin (100 μg/mL) in a humidified atmosphere in a 5% CO2 incubator. The cells were treated with 10, 25, 50 μM natural products in the presence of 1 μg/mL LPS (lipopolysaccharide, Sigma-Aldrich, St. Louis, MO, USA) for 20 h. The concentration of NO in culture supernatants was determined as nitrite, a major stable product of NO, by Griess reagent assay, and cell viabilities were determined using the MTT assay as described previously.

[2] = Cell viability, MTT assay; parameters: concentration or dose not given beside the values; conditions: mouse
Description: as §1

iNOS mRNA expression = experiment: RT-PCR analysis of LPS-induced iNOS mRNA expression; conditions: LPS treatment
RAW 264.7 cells = experiment: Cell viability, MTT assay; parameters: concentration or dose not given beside the values
Description: as §1

[3] = RAW264.7, RAW 264.7 macrophages, 1 μg/mL LPS, 20 h, mean ± SEM (n = 4) of 3 independent experiments
[4] = RAW 264.7 macrophage cells, RAW 264.7, MTT assay, read-out: cell viability
[5] = RAW 264.7 macrophage cells, RAW 264.7 macrophages, MTT assay, mean ± SEM, read-out: Cell Viability (% Control)

`CC1(C)CCC2C(=CC1=O)CCC1C(C)(C(=O)O)CCCC21C` (stereo not drawn) [Compound 6, 12(13→15)abeo-13-oxo-8(14)-abietene-18-oic acid] showed an IC50 [1, 3] of 24.8 ± 12.9 µM, a viability at 20 h [2, 4] of under 80% and a viability at 20 h [2, 5] of 76.3 ± 5.48%.

In the case of `CC(O)c1ccc2c(c1)CCC1[C@](C)(C(=O)O)CCC[C@]21C` (stereo partly drawn) [E], the “NO inhibition (in words)” value [1] is reported as “showed inhibitory activities”.

In the case of `CC1(C)CCc2cc(-c3ccc(O)cc3)cc(O)c2O1` [I], the “NO inhibition (in words)” value [1] is reported as “showed inhibitory activities”.

`COc1cc(CCCOC(C)=O)cc(OC)c1O` [Compound 7, amycolataiwanensin G] gave an IC50 [1, 3] of 12.8 ± 4.82 µM, a viability at 20 h [2, 4] of under 80% and a viability at 20 h [2, 5] of 56.3 ± 3.91%.

With `CC1(C)CCc2cc(-c3ccc(O)cc3)cc(O)c2O1` [Compound 9, 6-(4-hydroxyphenyl)-2,2-dimethylchroman-8-ol] the “effect on LPS-increased iNOS mRNA expression” value (iNOS mRNA expression) was “inhibited this increase in a concentration-dependent manner”, the IC50 [1, 3] was 13.3 ± 0.51 µM and the viability at 20 h [2, 4] was over 80%. For the same compound, the viability at 20 h [2, 5] was 98 ± 1.53% and the “cell viability” value (RAW 264.7 cells; RAW 264.7, MTT assay) was over 95%.

In the case of `O=c1c(O)c(-c2ccc(O)c(O)c2)oc2cc(O)cc(O)c12` [Quercetin, quercetin, reference compound], the IC50 [1, 3] is reported as 35.9 ± 2.34 µM and the viability at 20 h [2, 5] is reported as 94.1 ± 1.32%.

With `CC(C)=CCCC1(C)C=Cc2cc(-c3ccc(O)cc3)cc(O)c2O1` (stereo not drawn) [Compound 8, amycolataiwanensin H] the “effect on LPS-increased iNOS mRNA expression” value (iNOS mRNA expression) was “inhibited this increase in a concentration-dependent manner”, the IC50 [1, 3] was 17.8 ± 1.13 µM and the viability at 20 h [2, 4] was over 80%. For the same compound, the viability at 20 h [2, 5] was 95.9 ± 1.32% and the “cell viability” value (RAW 264.7 cells; RAW 264.7, MTT assay) was over 95%.

With `C[C@@H]1[C@@H](O)CC2C(C)(C)C3CC21CC[C@@]3(C)O` (relative stereo) [Compound 10, (2S*,3S*,6R*)-3,6,8,8-tetramethyloctahydro-1H-3a,7-methanoazulene-2,6-diol] the IC50 [1, 3] was over 100 µM and the viability at 20 h [2, 5] was 89.5 ± 2.15%.

In the case of `CC(C)=CCCC1(C)C=Cc2cc(-c3ccc(O)cc3)cc(O)c2O1` (stereo not drawn) [H], the “NO inhibition (in words)” value [1] is reported as “showed inhibitory activities”.

In the case of `CC(C)c1cc2c(c(O)c1O)[C@@]1(C)CCC(=O)C(C)(C)C1[C@@H](O)[C@H]2O` (stereo partly drawn) [Compound 3, 6α,7α,11-trihydroxy-3-oxoferrugiol], the “effect on LPS-increased iNOS mRNA expression” value (iNOS mRNA expression) is reported as “inhibited this increase in a concentration-dependent manner”, the “NO inhibition (in words)” value [1] is reported as “showed inhibitory activities” and the IC50 ([1]; RAW264.7, 20 h) is reported as 17.5 ± 1.85 µM. For the same compound, the viability at 20 h ([2]; Cell Viability (% Control)) was 95.5 ± 3.39%, the viability at 20 h ([2]; cell viability) was over 80% and the “cell viability” value (RAW 264.7 cells; mouse, 20 h) was over 95%.

For `CC(=O)OCC(C)(O)C1CCC(C)C12CC=C(C)CC2` (stereo not drawn) [Compound 2, 12-acetoxy-11-hydroxyacora-3-ene], the “NO inhibition (in words)” value [1] was “less effective NO inhibition”, the IC50 [1, 3] was 34.2 ± 1.97 µM and the viability at 20 h [2, 5] was 99.6 ± 5.53%.

With `CC(O)c1ccc2c(c1)CCC1[C@](C)(C(=O)O)CCC[C@]21C` (relative stereo) [Compound 5, (1R*,4aS*)-7-(1-hydroxyethyl)-1,4a-dimethyl-1,2,3,4,4a,9,10,10a-octahydrophenanthrene-1-carboxylic acid] the “effect on LPS-increased iNOS mRNA expression” value (iNOS mRNA expression) was “inhibited this increase in a concentration-dependent manner”, the IC50 [1, 3] was 12.3 ± 4.97 µM and the viability at 20 h [2, 4] was over 80%. For the same compound, the viability at 20 h [2, 5] was 82.2 ± 3.21% and the “cell viability” value (RAW 264.7 cells; RAW 264.7, MTT assay) was over 95%.

Compound `CC(C)C1=C(O)C(=O)C2=C(CCC3C(C)(C)[C@@H](O)CC[C@]23C)C1=O` (stereo partly drawn) [Compound 4, amycolataiwanensin D] has an IC50 [1, 3] of 24.8 ± 1.63 µM and a viability at 20 h [2, 5] of 91.1 ± 4.22%.

Reference: PMC8510368, “Secondary Metabolites with Anti-Inflammatory Activities from One Actinobacteria Amycolatopsis taiwanensis” (Molecules, 2021)
